Laboratory results: patent US11584747B2, “Substituted pyridopyrimidinonyl compounds useful as T cell activators” (BRISTOL-MYERS SQUIBB COMPANY, priority 2019, dated 2023)
Where two headings read alike, the source gives them in different places.

Assays:
human DGKζ = human DGKζ (Homo sapiens (Human), UniProt Q13574); assay: DGKζ LIPGLO assay (extruded liposome substrate, ADP-Glo luminescence); assay type: biochemical
human DGKα = human DGKα (Homo sapiens (Human), UniProt P23743); assay: DGKα ADPGLO assay (detergent/lipid micelle substrate); assay type: biochemical
Chain of human DGKα (P23743 whole entry, looked up, the tested form may be a part): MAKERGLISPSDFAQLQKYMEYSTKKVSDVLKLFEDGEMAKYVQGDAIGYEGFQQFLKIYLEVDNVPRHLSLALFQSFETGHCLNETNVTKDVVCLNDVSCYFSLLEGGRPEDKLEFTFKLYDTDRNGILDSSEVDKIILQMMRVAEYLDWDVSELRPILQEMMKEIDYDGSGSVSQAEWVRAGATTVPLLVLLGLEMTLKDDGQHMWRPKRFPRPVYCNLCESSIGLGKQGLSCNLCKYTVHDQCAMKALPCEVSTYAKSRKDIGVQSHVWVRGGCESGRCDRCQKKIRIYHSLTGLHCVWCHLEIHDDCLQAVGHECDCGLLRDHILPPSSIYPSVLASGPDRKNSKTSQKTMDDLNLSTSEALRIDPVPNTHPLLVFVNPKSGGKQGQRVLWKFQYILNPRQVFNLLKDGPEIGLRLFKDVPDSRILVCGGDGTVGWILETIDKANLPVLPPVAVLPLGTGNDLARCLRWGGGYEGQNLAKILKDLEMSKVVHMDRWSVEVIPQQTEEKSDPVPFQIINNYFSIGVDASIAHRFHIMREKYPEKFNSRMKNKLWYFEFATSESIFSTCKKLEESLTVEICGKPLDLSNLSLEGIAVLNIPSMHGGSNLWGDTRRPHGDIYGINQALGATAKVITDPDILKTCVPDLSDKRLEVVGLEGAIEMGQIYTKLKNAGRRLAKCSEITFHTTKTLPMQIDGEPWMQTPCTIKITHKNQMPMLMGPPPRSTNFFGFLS
Experimental: DGK Alpha ADPGLO (Truncated) IC50 (uM)
The detergent/lipid micelle was prepared by combining 15 g phosphatidylserine (Avanti 840035P) and 1 g diacylglycerol (8008110) and dissolving into 150 mL chloroform in a 2 L round bottom flask. Chloroform was removed under high vacuum by rotary evaporation. […] The lipid/detergent solution was split into 5 mL aliquots and stored at −80° C.

[1] = tested on: human venous whole blood (IFN-γ); assay: Human whole blood IFN-γ assay; assay type: cell-based
Experimental: Human venous whole blood (22.5 μL per well), obtained from healthy donors, was pre-treated with compounds for one hour at 37° C. in a humidified 95% air/5% CO2 incubator. The blood was stimulated with 2.5 μL anti-human CD3 and anti-CD28 mAb at a final concentration of 1 μg/mL each for 24 hours at 37° C. IFN-γ in the supernatants was measured using AlphLISA kit (Cat #AL217).

[2] = liposome assay, read-out: DGK zeta LIPGLO IC50
[3] = truncated DGK alpha, read-out: DGK alpha ADPGLO (Truncated) IC50
[4] = whole blood, normalized to 3 μM reference compound as 100% activation, read-out: IFN-γ Whole Blood Normalized EC50
[5] = liposome (LIPGLO) assay, read-out: DGK zeta (liposome assay) IC50
[6] = ADPGLO assay, read-out: DGK alpha ADPGLO IC50
[7] = Homo sapiens, whole blood, normalized to 3 μM reference compound as 100% activation, read-out: IFN-γ Whole Blood Normalized EC50
[8] = human whole blood, anti-CD3 plus anti-CD28 stimulation, 24 hours, read-out: IFN-γ Whole Blood EC50

Chain of human DGKζ (Q13574 other isoform, or with tags, fused parts or gaps): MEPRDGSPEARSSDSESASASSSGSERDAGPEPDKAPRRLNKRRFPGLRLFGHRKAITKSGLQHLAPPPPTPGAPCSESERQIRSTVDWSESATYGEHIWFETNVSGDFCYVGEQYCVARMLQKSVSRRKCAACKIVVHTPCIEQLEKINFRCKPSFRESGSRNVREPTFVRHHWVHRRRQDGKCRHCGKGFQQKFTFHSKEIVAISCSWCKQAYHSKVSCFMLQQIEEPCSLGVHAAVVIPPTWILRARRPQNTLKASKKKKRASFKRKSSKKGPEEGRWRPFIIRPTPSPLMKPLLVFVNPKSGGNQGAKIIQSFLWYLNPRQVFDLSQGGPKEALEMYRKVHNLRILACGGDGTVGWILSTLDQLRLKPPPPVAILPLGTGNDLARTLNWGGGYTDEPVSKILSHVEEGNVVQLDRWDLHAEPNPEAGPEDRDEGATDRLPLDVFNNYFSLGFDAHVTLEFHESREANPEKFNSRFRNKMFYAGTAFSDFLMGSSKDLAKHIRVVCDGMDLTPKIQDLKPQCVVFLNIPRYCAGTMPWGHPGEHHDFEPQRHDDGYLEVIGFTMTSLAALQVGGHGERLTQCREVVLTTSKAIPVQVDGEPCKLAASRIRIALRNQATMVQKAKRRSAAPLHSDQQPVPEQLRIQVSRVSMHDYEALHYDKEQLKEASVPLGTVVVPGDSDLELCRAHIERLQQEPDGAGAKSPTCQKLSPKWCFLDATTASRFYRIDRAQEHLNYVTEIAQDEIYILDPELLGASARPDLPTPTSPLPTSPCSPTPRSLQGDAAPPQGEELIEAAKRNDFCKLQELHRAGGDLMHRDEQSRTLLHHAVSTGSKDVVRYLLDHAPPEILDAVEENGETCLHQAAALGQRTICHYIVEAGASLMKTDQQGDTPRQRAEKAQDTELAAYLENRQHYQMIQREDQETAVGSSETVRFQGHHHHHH

SMILES	IC50 (human DGKζ; [2]) [nM]	IC50 (human DGKα; [3]) [nM]	EC50 [1, 4] [nM]	IC50 (human DGKζ; [5]) [nM]	IC50 (human DGKα; [6]) [nM]	EC50 ([1]; Homo sapiens, 24 h, human whole blood, anti-CD3 plus anti-CD28 stimulation, 24 hours, read-out: IFN-γ Whole Blood EC50) [nM]	EC50 [1, 7] [nM]	EC50 [1, 8] [nM]
CCC(c1ccc(Cl)cc1F)N1C[C@H](CC)N(c2nc(=O)n(C)c3ccc(C#N)nc23)C[C@H]1CC (stereo partly drawn) [Example 239, 4-((2S,5R)-4-(1-(4-chloro-2-fluorophenyl)propyl)-2,5-diethylpiperazin-1-yl)-1-methyl-2-oxo-1,2-dihydropyrido[3,2-d]pyrimidine-6-carbonitrile]	2230	94	2850	–	–	–	–	–
CC[C@H]1CN(C(C)c2cnc(C(F)(F)F)nc2)[C@H](CC)CN1c1nc(=O)n(C)c2ccc(C#N)nc12 (stereo partly drawn) [Example 226, 4-((2S,5R)-2,5-diethyl-4-(1-(2-(trifluoromethyl)pyrimidin-5-yl)ethyl)piperazin-1-yl)-1-methyl-2-oxo-1,2-dihydropyrido[3,2-d]pyrimidine-6-carbonitrile]	2650	1210	5600	–	–	–	–	–
CCC(c1ccc(OC(F)F)cc1F)N1C[C@H](CC)N(c2nc(=O)n(C)c3ccc(C#N)nc23)C[C@H]1CC (stereo partly drawn) [Example 233, 4-((2S,5R)-4-(1-(4-(difluoromethoxy)-2-fluorophenyl)propyl)-2,5-diethylpiperazin-1-yl)-1-methyl-2-oxo-1,2-dihydropyrido[3,2-d]pyrimidine-6-carbonitrile]	950	170	2770	–	–	–	–	–
[2H]C([2H])([2H])Oc1ccc(C(C)N2C[C@H](CC)N(c3nc(=O)n(C)c4ccc(C#N)nc34)C[C@H]2CC)cc1 (single isomer, unassigned) [Example 191]	260	460	290	–	–	–	–	–
[2H]C([2H])([2H])Oc1ccc(C(CC)N2C[C@H](CC)N(c3nc(=O)n(C)c4ccc(C#N)nc34)C[C@H]2CC)cc1 (single isomer, unassigned) [Example 209]	1030	91	1280	–	–	–	–	–
CCC(c1ccc(Cl)cc1F)N1C[C@H](CC)N(c2nc(=O)n(C)c3ccc(C#N)nc23)C[C@H]1CC (stereo partly drawn) [Example 238, 4-((2S,5R)-4-(1-(4-chloro-2-fluorophenyl)propyl)-2,5-diethylpiperazin-1-yl)-1-methyl-2-oxo-1,2-dihydropyrido[3,2-d]pyrimidine-6-carbonitrile]	110	15	23	–	–	–	–	–
CCC(c1ccc(OC)cc1)N1C[C@H](CC)N(c2nc(=O)n(C)c3ccc(C#N)nc23)C[C@H]1CC (stereo partly drawn) [Example 212, 4-((2S,5R)-2,5-diethyl-4-(1-(4-methoxyphenyl)propyl)piperazin-1-yl)-1-methyl-2-oxo-1,2-dihydropyrido[3,2-d]pyrimidine-6-carbonitrile]	70	18	22	–	–	–	–	–
CCC(c1ccc(C(F)(F)F)cc1)N1C[C@H](CC)N(c2nc(=O)n(C)c3ccc(Cl)nc23)C[C@H]1CC (single isomer, unassigned) [Example 421]	–	–	–	320	64	190	–	–
CC[C@H]1CN(C(C)c2ccc(OC(C)(C)COC)cc2)[C@H](CC)CN1c1nc(=O)n(C)c2ccc(C#N)nc12 (stereo partly drawn) [Example 189]	17000	850	450	–	–	–	–	–
CCC(c1ccc(C2CC2)cc1)N1C[C@H](CC)N(c2nc(=O)n(C)c3ccc(C#N)nc23)C[C@H]1CC (stereo partly drawn) [Example 201, 4-((2S,5R)-4-(1-(4-cyclopropylphenyl)propyl)-2,5-diethylpiperazin-1-yl)-1-methyl-2-oxo-1,2-dihydropyrido[3,2-d]pyrimidine-6-carbonitrile]	900	160	–	–	–	–	230	–
CC[C@@H]1CN(c2nc(=O)n(C)c3ccc(C#N)nc23)[C@@H](C)CN1C(c1ccc(F)cc1)c1csc(C(F)(F)F)n1 (stereo partly drawn) [Example 296, 4-((2S,5R)-5-ethyl-4-((4-fluorophenyl)(2-(trifluoromethyl)thiazol-4-yl)methyl)-2-methylpiperazin-1-yl)-1-methyl-2-oxo-1,2-dihydropyrido[3,2-d]pyrimidine-6-carbonitrile]	140	460	–	–	–	–	36	–
CC[C@@H]1CN(c2nc(=O)n(C)c3ccc(C#N)nc23)[C@@H](C)CN1C(C)c1ccc2oc(=O)n(C)c2c1 (stereo partly drawn) [Example 298, 4-((2S,5R)-5-ethyl-2-methyl-4-(1-(3-methyl-2-oxo-2,3-dihydrobenzo[d]oxazol-5-yl)ethyl)piperazin-1-yl)-1-methyl-2-oxo-1,2-dihydropyrido[3,2-d]pyrimidine-6-carbonitrile]	380	480	420	–	–	–	–	–
CC[C@H]1CN(C(C)c2ccc(CO)cc2)[C@H](CC)CN1c1nc(=O)n(C)c2ccc(C#N)nc12 (stereo partly drawn) [Example 271, 4-((2S,5R)-2,5-Diethyl-4-(1-(4-(hydroxymethyl)phenyl)ethyl)piperazin-1-yl)-1-methyl-2-oxo-1,2-dihydropyrido[3,2-d]pyrimidine-6-carbonitrile]	12700	10	14400	–	–	–	–	–
CCC(c1ccc(OCC2CC2)cc1)N1C[C@H](C)N(c2nc(=O)n(C)c3ccc(C#N)nc23)C[C@H]1CC (stereo partly drawn) [Example 309, 4-((2S,5R)-4-(1-(4-(cyclopropylmethoxy)phenyl)propyl)-5-ethyl-2-methylpiperazin-1-yl)-1-methyl-2-oxo-1,2-dihydropyrido[3,2-d]pyrimidine-6-carbonitrile]	–	–	–	850	350	–	–	1480
CC[C@H]1CN(C(C)c2ccc(CN3CCOC(C)(C)C3)cc2)[C@H](CC)CN1c1nc(=O)n(C)c2ccc(C#N)nc12 (stereo partly drawn) [Example 276, 4-((2S,5R)-4-(1-(4-((2,2-dimethylmorpholino)methyl)phenyl)ethyl)-2,5-diethylpiperazin-1-yl)-1-methyl-2-oxo-1,2-dihydropyrido[3,2-d]pyrimidine-6-carbonitrile]	1380	120	3560	–	–	–	–	–
CC[C@H]1CN(C(C)c2ccc(C)nc2)[C@H](CC)CN1c1nc(=O)n(C)c2ccc(C#N)nc12 (stereo partly drawn) [Example 228, 4-((2S,5R)-2,5-diethyl-4-(1-(6-methylpyridin-3-yl)ethyl)piperazin-1-yl)-1-methyl-2-oxo-1,2-dihydropyrido[3,2-d]pyrimidine-6-carbonitrile]	300	190	600	–	–	–	–	–
CC(c1ccc(CN2C[C@@H]3C[C@H]2CO3)cc1)N1C[C@H](C)N(c2nc(=O)n(C)c3ccc(C#N)nc23)C[C@H]1C (stereo partly drawn) [Example 388, 4-((2S,5R)-4-(1-(4-(((1S,4S)-2-oxa-5-azabicyclo[2.2.1]heptan-5-yl)methyl)phenyl)ethyl)-2,5-dimethylpiperazin-1-yl)-1-methyl-2-oxo-1,2-dihydropyrido[3,2-d]pyrimidine-6-carbonitrile]	–	–	–	45700	1750	–	–	20000
CC[C@H]1CN(C(C)c2ccc(CN3CCC(OC)CC3)cc2)[C@H](CC)CN1c1nc(=O)n(C)c2ccc(C#N)nc12 (single isomer, unassigned) [Example 273]	7330	1000	420	–	–	–	–	–
CC[C@H]1CN(C(C)c2ccc(C(=O)OC)cc2)[C@H](CC)CN1c1nc(=O)n(C)c2ccc(C#N)nc12 (stereo partly drawn) [Example 265, methyl 4-(1-((2R,5S)-4-(6-cyano-1-methyl-2-oxo-1,2-dihydropyrido[3,2-d]pyrimidin-4-yl)-2,5-diethylpiperazin-1-yl)ethyl)benzoate]	370	790	1590	–	–	–	–	–
CCC(c1ccc(C)cc1)N1C[C@H](CC)N(c2nc(=O)n(C)c3ccc(C#N)nc23)C[C@H]1CC (stereo partly drawn) [Example 237, 4-((2S,5R)-2,5-diethyl-4-(1-(p-tolyl)propyl)piperazin-1-yl)-1-methyl-2-oxo-1,2-dihydropyrido[3,2-d]pyrimidine-6-carbonitrile]	3960	53	1430	–	–	–	–	–
CC[C@H]1CN(C(C)c2ccc(CN3CCOC(C)(C)C3)cc2)[C@H](CC)CN1c1nc(=O)n(C)c2ccc(C#N)nc12 (stereo partly drawn) [Example 275, 4-((2S,5R)-4-(1-(4-((2,2-dimethylmorpholino)methyl)phenyl)ethyl)-2,5-diethylpiperazin-1-yl)-1-methyl-2-oxo-1,2-dihydropyrido[3,2-d]pyrimidine-6-carbonitrile]	150	530	35	–	–	–	–	–
CC[C@H]1CN(C(c2ccc(F)cc2)c2noc(C3CC3)n2)[C@H](CC)CN1c1nc(=O)n(C)c2ccc(C#N)nc12 (single isomer, unassigned) [Example 372]	–	–	–	43	4	–	–	150
CCC(c1ccc(OCC2CC2)cc1F)N1C[C@H](CC)N(c2nc(=O)n(C)c3ccc(C#N)nc23)C[C@H]1CC (stereo partly drawn) [Example 198, 4-((2S,5R)-4-(1-(4-(cyclopropylmethoxy)-2-fluorophenyl)propyl)-2,5-diethylpiperazin-1-yl)-1-methyl-2-oxo-1,2-dihydropyrido[3,2-d]pyrimidine-6-carbonitrile]	38	37	15	–	–	–	–	–
